These results are taken from ChEMBL document CHEMBL3608212, “Design, synthesis, and in vivo activity of novel inhibitors of delta-5 desaturase for the treatment of metabolic syndrome” (Bioorg Med Chem Lett, 2015).

The target of data set [1] is T1, Acyl-CoA (8-3)-desaturase (Homo sapiens, UniProt O60427). The data set is described as follows: Inhibition of liver delta-5 desaturase (unknown origin).
Target sequence in this assay (O60427 whole entry): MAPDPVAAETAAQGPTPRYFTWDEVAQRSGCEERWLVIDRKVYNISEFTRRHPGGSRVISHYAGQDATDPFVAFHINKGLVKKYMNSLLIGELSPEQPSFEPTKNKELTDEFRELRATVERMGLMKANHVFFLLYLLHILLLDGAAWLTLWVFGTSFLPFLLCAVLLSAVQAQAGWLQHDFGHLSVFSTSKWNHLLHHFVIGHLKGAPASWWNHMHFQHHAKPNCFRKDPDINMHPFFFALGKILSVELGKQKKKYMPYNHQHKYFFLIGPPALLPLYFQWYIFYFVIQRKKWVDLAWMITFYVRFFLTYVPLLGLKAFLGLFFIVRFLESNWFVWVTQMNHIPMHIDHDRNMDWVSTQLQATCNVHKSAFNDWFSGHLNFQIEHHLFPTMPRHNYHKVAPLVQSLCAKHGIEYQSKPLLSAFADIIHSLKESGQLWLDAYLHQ
The target in data set [2] is T1, Acyl-CoA (8-3)-desaturase. The data set is described as follows: Inhibition of liver delta-5 desaturase (unknown origin) at 1 uM.
Target sequence in this assay (O60427 whole entry, looked up): as the sequence (O60427 whole entry) above
Data set [3] relates to Mus musculus. Kind of data set: In vivo inhibition of delta-5 desaturase in mouse liver assessed as conversion of [14C]-DGLA to [14C]-arachidonic acid at 30 mg/kg, po after 2.5 hrs by TLC analysis relative to control. The data set is classed as functional.
The nature of data set [4]: Plasma concentration in mouse at 30 mg/kg, po after 0.5 hrs by LC/MS-MS analysis. The format is ADME, organism-based.
Data set [5] in a line: Ratio of plasma concentration in mouse at 30 mg/kg, po after 0.5 hrs to IC50 for liver delta-5 desaturase (unknown origin). The format is ADME, organism-based. Particulars: in vivo.
Data set [6] deals with Mus musculus. Kind of data set: In vivo inhibition of delta-5 desaturase in mouse liver assessed as conversion of [14C]-DGLA to [14C]-arachidonic acid at 60 mg/kg, po after 2.5 hrs by TLC analysis relative to control. The format is functional.
Data set [7] is described as follows: Ratio of plasma concentration in mouse at 60 mg/kg, po after 0.5 hrs to IC50 for liver delta-5 desaturase (unknown origin). The format is ADME, organism-based. Particulars: in vivo.
Data set [8] in a line: Plasma concentration in mouse at 60 mg/kg, po after 0.5 hrs by LC/MS-MS analysis. The format is ADME, organism-based.

As for `Clc1cccc(Nc2nccc3occc23)c1`, the IC50 (usually the concentration that gives 50% inhibition) in data set [1] is 371 nM.
Still for that read-out and setting: then `FC(F)(F)Oc1ccc2[nH]nc(Nc3cccc(Cl)c3)c2c1`, with above 3000 nM.
On to `Nc1ccccc1C(=O)Nc1ccc(Cl)cc1`, for which the inhibition – broadly, how much of the control response was suppressed – in data set [2] was 36%.
Take `CCOc1ccc(O)c(C(=O)Nc2cccc(Cl)c2)c1`: 925 nM corresponded to half-maximal inhibition in data set [1] (IC50).
On the same count and under the same terms, then `Nc1ccccc1C(=O)Nc1cccc(Cl)c1`, with 58 nM.
The same measure, in the same setting: for `Nc1ccc(Cl)cc1C(=O)Nc1cccc(Cl)c1` the value was 34 nM.
On the same count and under the same terms, for `Nc1ccc(F)cc1C(=O)Nc1cccc(Cl)c1` the value was 67 nM.
As to `Clc1cccc(Nc2n[nH]c3ccccc23)c1`, the inhibition in vivo (usually the percentage by which the read-out fell short of the control) at 30 mg/kg with Mus musculus [3] was determined as 42%. This compound also yielded an IC50 in data set [1] of 84 nM. The concentration at 0.5 h in data set [4] was determined as 12.7 µM. In data set [5], the Ratio was determined as 151.
Take `Nc1ccccc1C(=O)Nc1cccc(F)c1`: the IC50 in data set [1] turned out to be 516 nM.
Still for that read-out and setting: for `Clc1cccc(Nc2n[nH]c3ccc(Br)cc23)c1` the value was 21 nM; for `CC(C)c1cccc(NC(=O)c2ccccc2N)c1`, 843 nM; for `O=C(Nc1cccc(Cl)c1)c1ccccc1O`, 174 nM.
In the case of `Fc1cccc(Nc2n[nH]c3ccccc23)c1`, in the data set on Mus musculus [3], the inhibition in vivo at 30 mg/kg worked out at 18%. Moreover, in data set [1], half-maximal inhibition (IC50) required 59 nM. For the same compound, the concentration at 0.5 h in data set [4] came to 9.45 µM. The Ratio in data set [5] was 160.
Turning to `COc1ccc(O)c(C(=O)Nc2cccc(Cl)c2)c1`, in data set [1], half-maximal inhibition (IC50) required 15 nM.
Regarding `Clc1cccc(Nc2ncnc3ccsc23)c1`, in data set [1], the IC50 came to 50 nM. Compared with the last compound, the IC50 is about 3.3-fold higher.
The same measure, in the same setting: then `Clc1cccc(Nc2ncnc3ccccc23)c1`, with 11 nM; and `Clc1cccc(Nc2cccc3ccccc23)c1`, with 17 nM; and `Clc1cccc(Nc2ccnc3ccccc23)c1`, with 18 nM.
In turn, `Cc1ccc2[nH]nc(Nc3cccc(Cl)c3)c2c1` registered an IC50 in data set [1] of 6 nM.
The compound `Nc1ccccc1C(=O)Nc1ccccc1Cl` yielded an inhibition in data set [2] of 39%.
Take `Clc1cccc(Nc2n[nH]c3ccc(Cl)cc23)c1`: in data set [1], the IC50 was 5 nM. In other words, the single-digit nanomolar range.
Still for that read-out and setting: then `Clc1cccc(Nc2ncnc3sccc23)c1`, with 260 nM; and `FC(F)(F)c1ccc2[nH]nc(Nc3cccc(Cl)c3)c2c1`, with 254 nM; and `Nc1ccccc1C(=O)Nc1ccc(F)c(Cl)c1`, with 155 nM.
Regarding `Fc1ccc2[nH]nc(Nc3cccc(Cl)c3)c2c1`, the inhibition in vivo at 30 mg/kg in the data set on Mus musculus [3] amounted to 49%. The IC50 in data set [1] worked out at 58 nM. In data set [4], this compound had a concentration at 0.5 h of 14.1 µM. Further, the Ratio in data set [5] turned out to be 242.
The compound `Nc1ccccc1C(=O)Nc1cc(Cl)cc(Cl)c1` registered an IC50 in data set [1] of 245 nM.
The same measure, in the same setting: then `Clc1cccc(NC2CCc3ccccc32)c1` (stereo not drawn), with 173 nM.
As to `COc1ccc2[nH]nc(Nc3cccc(Cl)c3)c2c1`, the inhibition in vivo at 60 mg/kg with Mus musculus [6] was determined as 97%. Also, the figures for the Ratio in data set [7] and in data set [5] were 1753 and 652, respectively. Further, the values for the concentration at 0.5 h in data set [8] and in data set [4] were 14 µM and 5.21 µM, respectively. Besides, the inhibition in vivo at 30 mg/kg with Mus musculus [3] came out at 75%. The compound also gave an IC50 in data set [1] of 8 nM.
